From patent US20240391882A1 (Mirati Therapeutics, Inc., priority 2023, published 2024)

Columns and labels:
Type in all cases: cell-based
[1] = tested on: pAKT in T47D (PI3Kα H1047R mutant) cells; experiment: Inhibition of pAKT (alphaLISA Surefire Ultra AKT 1/2/3 pS473) in T47D cells; details: Homo sapiens; T47D (PI3Kα H1047R mutant) cells, 24 hr compound incubation, alphaLISA pS473; read-out: T47D (H1047R) pAKT 24 hr (IC50)
Method in brief: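 Cells in HBSS were dosed from 10.4 μm (1:4 serial dilution, 10 concentrations) and incubated about 24 hours at 37° C, then lysed. pAKT S473 measured by alphaLISA after overnight bead incubation. Signal normalised to alpelisib (3.125 μm) and DMSO controls; IC50 from four-parameter fit.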

[2] = tested on: SKBR3 (PI3Kα wild type) cells; experiment: Cell viability (CellTiter-Glo 2.0) in SKBR3 cells; details: Homo sapiens, SK-BR-3; SKBR3 (PI3Kα wild type) cells, approximately 72 hours, CellTiter-Glo 2.0; read-out: SKBR3 (WT) Viability IC50
Method in brief: (§1)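 SKBR3 or T47D cells, 1000 per well, were seeded overnight and then exposed ~72 h at 37° C to 10 concentrations of compound, 1:4 dilutions from 10 μm. Viability read by CellTiter-Glo luminescence as percent of vehicle; IC50 from four-parameter variable-slope fit.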

[3] = tested on: T47D (PI3Kα H1047R mutant) cells; experiment: Cell viability (CellTiter-Glo 2.0) in T47D cells; details: Homo sapiens, T47D, 72 h, approximately 72 hours
Method in brief: as §1

[4] = tested on: pAKT in SKBR3 (PI3Kα wild type) cells; experiment: Inhibition of pAKT (alphaLISA Surefire Ultra AKT 1/2/3 pS473) in SKBR3 cells; details: Homo sapiens, SK-BR-3, approximately 24 hours treatment, read-out: SKBR3 (WT) pAKT IC50
Description: The ability of a compound of Formula (I) to inhibit the formation of pAKT was measured using alphaLISA Surefire Ultra AKT 1/2/3 (pS473) Assay Kit (#ALSU-PAKT-B50K) was obtained from Perkin Elmer (Waltham, MA).
To prepare assay plates for pAKT alphaLISA assays, cells were trypsinized, resuspended in fresh media, and viable cells were counted utilizing trypan blue exclusion. Prior to seeding, cells were washed with PBS and resuspended in HBSS (Gibco, #14025092). T47D (12,000/w), SKBR3 (12,000/w), or MKN1 (24,000/w) cells were seeded at 12 μl per well in a solid white flat bottom 384 cell culture plate (Perkin Elmer #6007680).
Immediately after seeding, cells were dosed using an Echo Liquid Handler (Beckman Coulter) with compounds at a 10.4 μm starting concentration and serially diluted (1:4) for a total of 10 concentrations. […] Plates were then imaged the following day using a CLARIOstar microplate reader (BMG Labtech, Germany).
Percent of control values were calculated by subtracting the average signal from the positive control (alpelisib) treated wells from all treated wells (including DMSO control wells) and then divided by the average signal from the vehicle DMSO treated control wells. Percent of vehicle control values were plotted as log(inhibitor) vs. response—Variable slope (four parameters) for curve fitting and IC50 values were determined using XLfit.

IC50 [1]: 39 nM
IC50 [2]: > 10000 nM
IC50 [3]: 456 nM
IC50 [4]: > 10000 nM
SMILES: Cc1cc(C(C)Nc2ccccc2C(=O)O)c2nc(N3CCCCC3)c(C#N)nc2c1 (stereo not shown) [Example 1, 2-((1-(2-cyano-7-methyl-3-(piperidin-1-yl)quinoxalin-5-yl)ethyl)amino)benzoic acid]
